# Earlier results, collected in patent US5356784A, “Determination of concentration by affinity titration” (Terrapin Technologies, Inc., priority 1993, dated 1994).
# System: Concanavalin A (ConA)
# Conditions: ConA with bacterial dextran from strain B-1355-5; materials described by Scott et al. PNAS 1992
compound,measurement,value
MYWYPY: peptide identified by screening a phage epitope display library; inhibits Con A-dextran precipitation,inhibition of precipitation of ConA-dextran,inhibit
"CO[C@H]1O[C@H](CO)[C@@H](O)[C@H](O)[C@@H]1O [MeMan, methyl-alpha-Man]",inhibition of precipitation of ConA-dextran,inhibited in a dosedependent manner
VGRAFS: peptide identified by screening a phage epitope display library; inhibits Con A-dextran precipitation,inhibition of precipitation of ConA-dextran,inhibit
